This note sets out measurements from patent publication US9815831B2, “3,5-disubstituted-3H-imidazo[4,5-B]pyridine and 3,5-disubstituted-3H-[1,2,3]triazolo[4,5-B] pyridine compounds as modulators of c-Met protein kinases” (Rhizen Pharmaceuticals SA, priority 2012, dated 2017).

Test [1] deals with T1, human recombinant Met kinase (Homo sapiens, UniProt P08581).
T1 construct: purchased Cell Signalling Technology, Beverly, Mass
The experiment in a line: Colorimetric determination of c-Met kinase activity (HTScan Met Kinase Assay Kit). Format: biochemical. To be noted: Table 4A; 100 nM (cells without *); read-out: c-Met Enzyme % inhibition @ 100 nM. The method, boiled down: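 Human recombinant Met kinase was preincubated with compound for 5 min at room temperature, then reacted with ATP and biotinylated peptide for 30 min; EDTA stop. Phosphopeptide captured on streptavidin and detected with phospho-tyrosine mAb and europium anti-mouse IgG by time-resolved fluorescence (340/615 nm). Reported as % inhibition or IC50.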

Test [2] concerns MKN-45. Put plainly: Inhibition of MKN-45 proliferation (MTT). To be noted: MKN-45 proliferation; for GI50 / inhibition at 0.1 µM: Homo sapiens; for GI50: read-out: MKN45 GI50; for inhibition at 0.1 µM: read-out: MKN45 % inhibition @ 100 nM. Format: cell-based, human. The procedure, abridged:
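High-Met human gastric adenocarcinoma MKN-45 cells plated on day 1 and exposed to compound from day 2. Viability measured by MTT dye reduction on day 5; output given as % inhibition at 100 nM and GI50.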

The target of test [3] is T2, c-Met kinase (Homo sapiens, UniProt P08581). Put plainly: Inhibition of c-Met kinase phosphorylation in NCI-H441 cells (cell based ELISA). To be noted: Table 5, 1 h incubation. Here is the method: 5. Inhibition of c-Met Kinase Phosphorylation in NCI-H441 Cells:
Inhibition of Met phosphorylation was determined using a cell based ELISA assay according to the following schedule: • Day 1: NCI-H441 cells were plated in 96-well plates in complete growth medium. • Day 2: Inhibitors at the desired concentration were added to the plates, incubated for 1 h and lysed subsequently. Lysates were transferred to NUNC Maxisorp plates coated with anti-cMet receptor antibody. Phopho-tyrosine mAb and HRP-lined anti-mouse IgG were used as primary and secondary antibodies respectively. Optical density was measured on a microplate reader (BMG Labtech., Germany) at […]. […] Results: The results are given below in Table 5 as IC50 values.

Test [4] deals with Akt. Put plainly: Inhibition of Akt phosphorylation in MKN-45 cells (Western blot). Format: cell-based. To be noted: Homo sapiens, Table 6, 0-1000 nM. The procedure: (§1) 6. Inhibition of Akt Phosphorylation in MKN-45 or NCI-H441 Cells:
(§2) Akt is a serine-threonine kinase and a downstream marker regulated by c-Met kinase via the PI3K pathway. Once phosphorylated, Akt regulates several end processes including cell survival and growth. Cells were treated with 0-1000 nM of test compounds, lysed, and the proteins separated on a 10% SDS-PAGE. Following separation, proteins were transferred onto a nitrocellulose membrane and detected by chemiluminescence after incubation with […] (primary) and rabbit anti-mouse Ab (secondary). Intensity of the bands was determined using ImageJ 1.42q (NIH, USA) and normalized to Actin (loading control).
(§3) Results: The results are provided below as IC50 values in Table 6.

The test system of test [5] is Akt. Put plainly: Inhibition of Akt phosphorylation in NCI-H441 cells (Western blot). To be noted: Homo sapiens, Table 6, 0-1000 nM. Format: cell-based. The procedure:
as §1, §2, §3

The test system of test [6] is MKN-45 cells. The experiment in a line: Induction of apoptosis in MKN-45 cells (caspase-3 activity). Format: cell-based, human. To be noted: percentage induction @ 3 μM; caspase-3, MKN-45 cells, 24 h; percent of maximum response. The procedure: 7. Induction of Apoptosis in MKN-45 Cells: I
Induction of Caspase 3 was measured fluorimetrically. Cells were incubated with desired concentrations of the compound for 24 h. After incubation, cells were harvested and counted. An equal number of viable cells per well (0.3×10^6 cells) were used for determination of caspase-3 activity. Increase in apoptosis manifested by an elevation in caspase-3 levels was determined using a Caspase-3 kit from Millipore. Data are expressed as a percent of the maximum response (100%).
Results: The results are provided below as percentage induction @ 3 μM in Table 7.

Test [7] has as its system MDA-MB-231 cells. Put plainly: Inhibition of HGF-induced cell proliferation in MDA-MB-231 cells (MTT). Format: cell-based. To be noted: Homo sapiens, Table 8, HGF (50 ng/ml). Here is the method: 8. Inhibition of HGF-Induced Met Phosphorylation in MDA-MB-231 Cells:
MDA-MB-231 is a breast cancer cell line having a high level of c-Met expression. Activation of Met kinase in these cells occurs only after the addition of its natural ligand, Hepatocyte Growth Factor (HGF). Upon binding to the extracellular domain of the enzyme, it triggers phosphorylation of tyrosine residues and regulates several downstream events such as cell proliferation. Cell proliferation assays were carried out using the high Met expressing cell line (MDA-MB-231) according to the following schedule: • Day 1: Cells were plated in 96-well plates in complete growth medium. • Day 2: Media was replaced with starvation medium containing 0.04% BSA. • Day 3: Inhibitors at the desired concentrations and HGF (50 ng/ml) were added. • Day 5: Cell viability was determined using the 3-[4,5-dimethylthiazol-2-yl]-2,5-diphenyltetrazolium bromide (MTT) dye reduction test. […] Results: The results are provided below in Table 8 as IC50 values.

Test [8] deals with T1, human recombinant Met kinase. Put plainly: Colorimetric determination of c-Met kinase activity (HTScan Met Kinase Assay Kit). Format: biochemical. To be noted: read-out: c-Met Enzyme IC50.
Test [9] addresses T2, c-Met kinase. Put plainly: Inhibition of c-Met kinase phosphorylation in MKN-45 cells (cell based ELISA). The arrangement: endogenous in cells; host or cells: MKN-45. To be noted: Table 4D, 1 h incubation. The procedure: MKN45 cells are a prototype of “c-Met addicted” cells having constitutively activated c-Met kinase similar to that observed in sub-sects of gastric or hepatocellular cancer patients with dysregulated c-Met kinase activity. Inhibition of Met phosphorylation was determined using a cell based ELISA assay according to the following schedule: • Day 1: MKN-45 cells were plated in 96-well plates in complete growth medium. • Day 2: Inhibitors at the desired concentration were added to the plates and incubated for 1 h and lysed subsequently. Lysates were transferred to NUNC Maxisorp plates coated with anti-cMet receptor antibody. Phopho-tyrosine mAb and HRP-lined anti-mouse IgG were used as primary and secondary antibodies respectively. Optical density was measured on a microplate reader (BMG Labtech., Germany) at […]. Inhibition of c-Met phosphorylation in this cell line indicates a therapeutic potential for test compounds in patients diagnosed with cancers caused by aberrant c-Met kinase signalling. Results: The results are provided above in Table 4D as IC50 values.

Where two headings read alike, the source gives them in different places.

T1 sequence (P08581 25-1390): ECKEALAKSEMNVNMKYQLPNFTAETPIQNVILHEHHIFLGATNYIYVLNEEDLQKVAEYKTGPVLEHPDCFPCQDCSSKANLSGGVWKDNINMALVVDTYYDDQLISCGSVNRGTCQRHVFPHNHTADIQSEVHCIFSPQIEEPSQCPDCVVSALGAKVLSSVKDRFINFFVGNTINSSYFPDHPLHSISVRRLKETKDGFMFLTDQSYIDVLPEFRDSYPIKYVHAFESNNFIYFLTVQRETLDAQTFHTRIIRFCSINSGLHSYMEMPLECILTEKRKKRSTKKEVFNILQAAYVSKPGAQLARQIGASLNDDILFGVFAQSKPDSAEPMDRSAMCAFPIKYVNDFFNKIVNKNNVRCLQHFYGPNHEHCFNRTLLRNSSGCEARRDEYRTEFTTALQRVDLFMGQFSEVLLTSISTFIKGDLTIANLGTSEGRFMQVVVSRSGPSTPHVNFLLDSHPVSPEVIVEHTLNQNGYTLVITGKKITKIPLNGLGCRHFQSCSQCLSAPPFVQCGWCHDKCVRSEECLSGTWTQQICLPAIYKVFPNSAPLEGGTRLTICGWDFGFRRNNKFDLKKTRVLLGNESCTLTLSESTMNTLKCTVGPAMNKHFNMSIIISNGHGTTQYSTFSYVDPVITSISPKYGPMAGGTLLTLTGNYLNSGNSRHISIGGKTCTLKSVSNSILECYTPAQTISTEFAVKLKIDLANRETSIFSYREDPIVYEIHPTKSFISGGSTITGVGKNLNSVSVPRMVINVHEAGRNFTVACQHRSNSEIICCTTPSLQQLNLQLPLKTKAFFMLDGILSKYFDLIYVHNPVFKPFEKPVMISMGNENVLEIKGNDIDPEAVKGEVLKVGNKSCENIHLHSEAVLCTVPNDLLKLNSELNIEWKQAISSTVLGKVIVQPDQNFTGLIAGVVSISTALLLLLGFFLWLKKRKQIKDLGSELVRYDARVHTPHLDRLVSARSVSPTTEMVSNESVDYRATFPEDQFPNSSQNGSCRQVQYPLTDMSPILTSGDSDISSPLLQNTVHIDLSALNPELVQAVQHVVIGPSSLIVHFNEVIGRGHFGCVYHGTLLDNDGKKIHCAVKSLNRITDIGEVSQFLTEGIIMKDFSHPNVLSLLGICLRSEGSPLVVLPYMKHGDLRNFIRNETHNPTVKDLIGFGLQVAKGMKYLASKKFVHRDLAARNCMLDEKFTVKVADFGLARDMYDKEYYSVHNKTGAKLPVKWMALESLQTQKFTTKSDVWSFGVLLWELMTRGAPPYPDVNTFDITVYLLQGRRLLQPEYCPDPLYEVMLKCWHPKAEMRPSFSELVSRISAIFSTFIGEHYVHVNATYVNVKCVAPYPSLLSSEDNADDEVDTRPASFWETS
T2 sequence (P08581 25-1390): as above

Consider `Cc1cc(-c2ccc3nnn(Cc4ccc5ncccc5c4)c3n2)ccc1C(=O)NOCCO` [Example 25, N-(2-hydroxyethoxy)-2-methyl-4-(3-(quinolin-6-ylmethyl)-3H-[1,2,3]triazolo[4,5-b]pyridin-5-yl)benzamide], for which, in test [1], the inhibition at 0.1 µM lay in the range of 75 to 100%. Moreover, the GI50 in [2] (MKN-45, Table 4A) fell in the range of 0.025 to 0.05 µM. In addition, in [2] (Table 4A, 100 nM, 0.1 µM), the “MKN45 % inhibition @ 100 nM” value was “A (A= ≧75 to 100%)”. Moreover, the IC50 was at most 0.01 µM in [3]; 0.01 to 0.025 µM in test [4]; at most 0.01 µM in test [5]; under 0.01 µM in test [7]; 0.025 to 0.05 µM in test [8] (Table 4A); 0.025 to 0.05 µM in [9]. The “% induction of caspase-3 activity” value in test [6] was “B (B is <75 and ≧50)”.
With `CC(C)(O)CONC(=O)c1ccc(-c2ccc3nnn(Cc4ccc5ncccc5c4)c3n2)cc1Cl` [Example 30, 2-chloro-N-(2-hydroxy-2-methylpropoxy)-4-(3-(quinolin-6-ylmethyl)-3H-[1,2,3]triazolo[4,5-b]pyridin-5-yl) benzamide], the inhibition at 0.1 µM was in the range of 75 to 100% in [1] and 75 to 100% in [2] (MKN-45, Table 4A, 100 nM). Further, the GI50 in [2] (MKN-45, Table 4A) lay in the range of 0.025 to 0.05 µM. Further, the IC50 in test [3] is 0.01 to 0.025 µM; in [4] it was 0.025 to 0.05 µM; in test [5] it was at most 0.01 µM; in test [7] it was under 0.01 µM; in [8] (Table 4A), 0.025 to 0.05 µM; in [9], 0.025 to 0.05 µM. For the same compound, the “% induction of caspase-3 activity” value in [6] was “B (B is <75 and ≧50)”.
On to `NC(=O)c1c(F)cc(-c2ccc3nnn(Cc4ccc5ncsc5c4)c3n2)cc1F` [Example 1006, 4-(3-(benzo[d]thiazol-6-ylmethyl)-3H-[1,2,3]triazolo[4,5-b]pyridin-5-yl)-2,6-difluorobenzamide], for which, in test [2] (MKN-45, Table 4C, 100 nM), the inhibition at 0.1 µM was 75 to 100%. The GI50 in test [2] (MKN-45, Table 4C) lay within 0.025 to 0.05 µM. The concentration for half-maximal inhibition (IC50) is at most 0.01 µM in [3]; 0.025 to 0.05 µM in [4]; at most 0.01 µM in test [5]; 0.01 to 0.05 µM in test [7]; 0.025 to 0.05 µM in [8] (Table 4C); 0.025 to 0.05 µM in test [9]. Further, in test [6], the “% induction of caspase-3 activity” value is “B (B is <75 and ≧50)”.
